Laboratory results from US9884823B2, “Oxime ether acetate compound, preparation method therefor and weeding application thereof” (ZHEJIANG UNIVERSITY OF TECHNOLOGY, priority 2014, dated 2018).
Like-named read-outs stand apart in the source and are kept apart here.

What was measured:
[1] = tested on: Soybean; details: 150 g a.i./ha; post-emergence spray treatment
[2] = tested on: Cucumber; assay: Culture dish method (general screening); format: in vivo; details: 100 mg/L, 7 days
Description: (§2) Culture dish method (general screening): The test targets were radish, cucumber, rape, wheat, sorghum and barnyard grass; the seeds of wheat, sorghum and radish were germinated in advance, and the uniform emerge-germinating seeds were used in the test.

[3] = tested on: Barnyardgrass; assay: Potted plants live body test; format: in vivo, barnyard grass
[4] = tested on: Barley; details: post-emergence spray treatment
[5] = tested on: Chinese sorghum; assay: Culture dish method (general screening); format: in vivo; details: 100 mg/L, 7 days
Description: as §2

[6] = tested on: Rape; assay: Culture dish method (general screening); format: in vivo; details: 100 mg/L, 7 days
Description: as §2

[7] = tested on: Rape; details: 150 g a.i./ha; post-emergence spray treatment
[8] = tested on: Corn; details: post-emergence spray treatment
[9] = tested on: Abutilon; assay: Potted plants live body test; format: in vivo
In short: (§1)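 Stock: compound in DMF + 1 wt % Tween-80 (1.0˜5.0%), diluted in distilled water to test concentrations. Seeds sown in 7.5 cm pots, 1:2 garden soil/nursery matrix, 0.2 cm soil cover, then treated.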

[10] = tested on: Crabgrass; assay: Potted plants live body test; format: in vivo
In short: as §1

[11] = tested on: amaranthus retroflexus; assay: Potted plants live body test; format: in vivo
In short: as §1

[12] = tested on: Eclipta prostrata; assay: Potted plants live body test; format: in vivo; details: for efficiency, Eclipta prostrata: 30 days, Table 9
In short: as §1

[13] = tested on: Dog point; assay: Potted plants live body test; format: in vivo
In short: as §1

[14] = tested on: Mustard; details: 150 g a.i./ha, 30 days, Table 9
[15] = tested on: Barnyardgrass; assay: Culture dish method (general screening); format: in vivo, barnyard grass; details: 100 mg/L, 7 days
Description: as §2

[16] = tested on: Radish; assay: Culture dish method (general screening); format: in vivo; details: 100 mg/L, 7 days
Description: as §2

[17] = tested on: Cotton; details: 150 g a.i./ha; post-emergence spray treatment
[18] = tested on: Rice; details: 150 g a.i./ha; post-emergence spray treatment
[19] = tested on: weeds; details: pre-emergence soil treatment; dose lowered below 150 g a.i./ha
[20] = tested on: Small quinoa; details: 150 g a.i./ha, 30 days, Table 9
[21] = tested on: broadleaf weeds such as mustard, small quinoa, Abutilon, Amaranthus retroflexus and Eclipta prostrate; details: 150 g a.i./ha
[22] = tested on: grass weeds such as crabgrass, barnyard grass, dog point
[23] = tested on: Wheat; assay: Culture dish method (general screening); format: in vivo; details: 100 mg/L, 7 days
Description: as §2

[24] = Pre-emergence soil treatment, 37.5 g a.i./ha
[25] = Pre-emergence soil treatment, 75 g a.i./ha
[26] = Pre-emergence soil treatment, 150 g a.i./ha, Table 10
[27] = postemergence spraying, 37.5 g a.i./ha
[28] = postemergence spraying, 75 g a.i./ha
[29] = postemergence spraying, 150 g a.i./ha, Table 10
[30] = Postemergence spraying, 150 g a.i./ha, 30 days, Table 9
[31] = Pre-emergence soil treatment, 150 g a.i./ha, 30 days, Table 9

SMILES: CON=C(C(=O)OC)c1ccccc1COc1cccc(-c2ncc(C(F)(F)F)cc2Cl)c1 [Compound 101]
- Crop inhibition rate, Soybean [1]: 40%
- inhibition rate, Cucumber Root [2]: 95%
- inhibition rate, Cucumber Stem [2]: 100%
- efficiency, Barnyardgrass [3, 24]: 0%
- efficiency, Barnyardgrass [3, 25]: 0%
- efficiency, Barnyardgrass [3, 26]: 0%
- efficiency, Barnyardgrass [3, 27]: 0%
- efficiency, Barnyardgrass [3, 28]: 0%
- efficiency, Barnyardgrass [3, 29]: 0%
- Crop inhibition rate, Barley ([4]; 150 g a.i./ha): 0%
- crop safety for barleys [4]: safer
- inhibition rate, Chinese sorghum Root [5]: 100%
- inhibition rate, Chinese sorghum Stem [5]: 100%
- inhibition rate, Rape Root [6]: 100%
- inhibition rate, Rape Stem [6]: 100%
- Crop inhibition rate, Rape [7]: 50%
- Crop inhibition rate, Corn ([8]; 150 g a.i./ha): 0%
- crop safety for corns [8]: safer
- efficiency, Abutilon [9, 30]: 100%
- efficiency, Abutilon [9, 24]: 0%
- efficiency, Abutilon [9, 25]: 0%
- efficiency, Abutilon [9, 31]: 100%
- efficiency, Abutilon [9, 26]: 100%
- efficiency, Abutilon [9, 27]: 30%
- efficiency, Abutilon [9, 28]: 60%
- efficiency, Abutilon [9, 29]: 100%
- efficiency, Crabgrass [10, 30]: 0%
- efficiency, Crabgrass [10, 24]: 0%
- efficiency, Crabgrass [10, 25]: 0%
- efficiency, Crabgrass [10, 31]: 80%
- efficiency, Crabgrass [10, 26]: 80%
- efficiency, Crabgrass [10, 27]: 0%
- efficiency, Crabgrass [10, 28]: 0%
- efficiency, Crabgrass [10, 29]: 0%
- efficiency, amaranthus retroflexus [11, 30]: 100%
- efficiency, amaranthus retroflexus [11, 24]: 0%
- efficiency, amaranthus retroflexus [11, 25]: 15%
- efficiency, amaranthus retroflexus [11, 31]: 100%
- efficiency, amaranthus retroflexus [11, 26]: 100%
- efficiency, amaranthus retroflexus [11, 27]: 100%
- efficiency, amaranthus retroflexus [11, 28]: 100%
- efficiency, amaranthus retroflexus [11, 29]: 100%
- efficiency, Eclipta prostrata ([12]; Postemergence spraying, 150 g a.i./ha): 100%
- efficiency, Eclipta prostrate [12, 24]: 0%
- efficiency, Eclipta prostrate [12, 25]: 0%
- efficiency, Eclipta prostrata ([12]; Pre-emergence soil treatment, 150 g a.i./ha): 85%
- efficiency, Eclipta prostrate [12, 26]: 85%
- efficiency, Eclipta prostrate [12, 27]: 97.5%
- efficiency, Eclipta prostrate [12, 28]: 100%
- efficiency, Eclipta prostrate [12, 29]: 100%
- efficiency, Dog point [13, 30]: 0%
- efficiency, Dog point [13, 24]: 0%
- efficiency, Dog point [13, 25]: 0%
- efficiency, Dog point [13, 31]: 50%
- efficiency, Dog point [13, 26]: 50%
- efficiency, Dog point [13, 27]: 0%
- efficiency, Dog point [13, 28]: 0%
- efficiency, Dog point [13, 29]: 0%
- efficiency, Mustard ([14]; Postemergence spraying): 100%
- efficiency, Mustard ([14]; Pre-emergence soil treatment): 100%
- inhibition rate, Barnyardgrass Root [15]: 100%
- inhibition rate, Barnyardgrass Stem [15]: 95%
- inhibition rate, Radish Root [16]: 100%
- inhibition rate, Radish Stem [16]: 100%
- Crop inhibition rate, Cotton [17]: 50%
- Crop inhibition rate, Rice [18]: 30%
- activity on 6 kinds of weed targets [19]: significantly decreased activity or no activity
- efficiency, Small quinoa ([20]; Postemergence spraying): 100%
- efficiency, Small quinoa ([20]; Pre-emergence soil treatment): 100%
- herbicidal activity on broadleaf weeds targets ([21]; 30 days after administration, Table 9 summary): herbicidal activity
- activity on the growth of broadleaf weeds ([21]; postemergence spraying, 30 days, vs clear water control): inhibitory activity
- activity for grass targets such as crabgrass and dog point ([22]; 150 g a.i./ha, 30 days after administration, Table 9 summary): poor activity
- activity on grass weeds such as crabgrass, dog point ([22]; postemergence spraying, 150 g a.i./ha, 30 days): almost have no activity
- activity on crabgrass, barnyard grass, dog point ([22]; postemergence treatment, 150, 75, 37.5 g a.i./ha): not good activity or no activity
- activity on grass weeds ([22]; pre-emergence soil treatment, 150 g a.i./ha): not good activity
- inhibition rate, Wheat Root [23]: 50%
- inhibition rate, Wheat Stem [23]: 20%

SMILES: COc1cc(OC)nc(Oc2ccccc2CNc2ccc(C(=O)OC(C)C)cc2)n1 [Pyribambenz isopropyl, reference compound]
- inhibition rate, Cucumber Root [2]: 95%
- inhibition rate, Cucumber Stem [2]: 90%
- efficiency, Barnyardgrass [3, 29]: 50%
- inhibition rate, Chinese sorghum Root [5]: 100%
- inhibition rate, Chinese sorghum Stem [5]: 90%
- inhibition rate, Rape Root [6]: 100%
- inhibition rate, Rape Stem [6]: 100%
- efficiency, Abutilon [9, 29]: 0%
- efficiency, Crabgrass [10, 29]: 50%
- efficiency, amaranthus retroflexus [11, 29]: 70%
- efficiency, Eclipta prostrate [12, 29]: 0%
- efficiency, Dog point [13, 29]: 80%
- inhibition rate, Barnyardgrass Root [15]: 100%
- inhibition rate, Barnyardgrass Stem [15]: 95%
- inhibition rate, Radish Root [16]: 100%
- inhibition rate, Radish Stem [16]: 90%
- inhibition rate, Wheat Root [23]: 95%
- inhibition rate, Wheat Stem [23]: 95%
